Test results published in patent US12459951B2, “Compounds that interact with RAS superfamily proteins for treatment of cancers, inflammatory diseases, rasopathies, and fibrotic disease” (SHY Therapeutics, LLC, priority 2022, dated 2025).
Values belong to the molecule of their own block, whether it stands above or below them.

What was measured:
cdc42 = target: T1, cdc42 (Homo sapiens, UniProt P60953); test: Cdc42 GTP Binding Domain Inhibition Assay; conditions: read-out: Cdc42: % inh.
T1 construct: made in house
Summary of the method: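 His-tagged cdc42 or Rheb (10–30 μg/mL) bound to nickel plates, then exposed to compound (20 μM, or serial dilutions for IC50) in 1% DMSO for 3 h at room temperature, ±Sos during final hour. Cy3- or Cy5-GTP (100 nM) added for 45 min; bound labelled GTP read by fluorescence after washes.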

MAPK p38 phosphorylation = test: MAPK p38 Activation Assay (western blot), Panc-1; type: cell-based, human; conditions: at 10 μM, Panc-1 pancreatic cancer cell line; starred symbols = activation
Summary of the method: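 Panc-1 cells (KRas G12D) were treated with compound for 6 h at 37 °C, at 10 μM or as serial dilutions for IC50, with 0.3% DMSO. Method 1 used overnight serum-starved cells (0.5% FBS) stimulated with 1.5 ng/ml EGF for 15 min; Method 2 used unstimulated cells in 10% FBS. Phospho-p38 (Thr180/Tyr182) was detected by western blot.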

JNK phosphorylation = test: JNK Activation Assay (western blot), Panc-1; type: cell-based, human; conditions: at 10 μM, Panc-1 pancreatic cancer cell line; starred symbols = activation
Summary of the method: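 KRas G12C Panc-1 cells treated 6 h at 37 °C with compound at 10 μM (0.3% DMSO), or serial dilutions for IC50. In Method 1 cells were serum-starved overnight (0.5% FBS) then stimulated with 1.5 ng/ml EGF for 15 min; Method 2 used 10% FBS without stimulation. Phospho-JNK (Thr183/Tyr185) measured by western blot.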

T1 sequence (P60953 whole entry, the tested form may be a part): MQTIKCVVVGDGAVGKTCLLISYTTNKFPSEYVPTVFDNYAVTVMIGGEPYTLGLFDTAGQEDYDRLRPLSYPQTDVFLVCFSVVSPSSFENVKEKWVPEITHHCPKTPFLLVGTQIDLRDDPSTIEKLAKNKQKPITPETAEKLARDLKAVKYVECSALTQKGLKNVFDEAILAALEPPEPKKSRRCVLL

Compound: Cc1c(-c2ccn(C(C)C)n2)cn2nc(-c3nccn3C)nc(Nc3ccn(C)n3)c12 [Compound 61, 6-(1-Isopropyl-1H-pyrazol-3-yl)-5-methyl-2-(1-methyl-1H-imidazol-2-yl)-N-(1-methyl-1H-pyrazol-3-yl)pyrrolo[2,1-f][1,2,4]triazin-4-amine]
inhibition at 20 µM (cdc42): 76 to 100%
% inh of MAPK p38 in Panc-1 (MAPK p38 phosphorylation): H* (H* ≥ 100% activation)
% inh of JNK in Panc-1 (JNK phosphorylation): H* (H* ≥ 100% activation)

Compound: Cc1c(-c2ccn(C(C)C)n2)cn2nc(-c3nccn3C)nc(Nc3nnc(C4CC4)o3)c12 [Compound 67, 5-Cyclopropyl-N-(6-(1-isopropyl-1H-pyrazol-3-yl)-5-methyl-2-(1-methyl-1H-imidazol-2-yl)pyrrolo[2,1-f][1,2,4]triazin-4-yl)-1,3,4-oxadiazol-2-amine]
inhibition at 20 µM (cdc42): 26 to 49%
% inh of MAPK p38 in Panc-1 (MAPK p38 phosphorylation): H* (H* ≥ 100% activation)
% inh of JNK in Panc-1 (JNK phosphorylation): H* (H* ≥ 100% activation)

Compound: Cc1c(-c2ccn(C(C)C)n2)cn2nc(-c3nccn3C)nc(Nc3cc(C4CC4)no3)c12 [Compound 69, 3-Cyclopropyl-N-(6-(1-isopropyl-1H-pyrazol-3-yl)-5-methyl-2-(1-methyl-1H-imidazol-2-yl)pyrrolo[2,1-f][1,2,4]triazin-4-yl)isoxazol-5-amine]
inhibition at 20 µM (cdc42): 0%
% inh of MAPK p38 in Panc-1 (MAPK p38 phosphorylation): H* (H* ≥ 100% activation)
% inh of JNK in Panc-1 (JNK phosphorylation): H* (H* ≥ 100% activation)

Compound: Cc1c(-c2ccn(C(C)C)n2)cn2nc(-c3nccn3C)nc(Nc3nc(C4CC4)no3)c12 [Compound 70, 3-Cyclopropyl-N-(6-(1-isopropyl-1H-pyrazol-3-yl)-5-methyl-2-(1-methyl-1H-imidazol-2-yl)pyrrolo[2,1-f][1,2,4]triazin-4-yl)-1,2,4-oxadiazol-5-amine]
inhibition at 20 µM (cdc42): 1 to 25%
% inh of MAPK p38 in Panc-1 (MAPK p38 phosphorylation): H* (H* ≥ 100% activation)
% inh of JNK in Panc-1 (JNK phosphorylation): H* (H* ≥ 100% activation)

Compound: Cc1c(-c2ccn(C(C)C)n2)cn2nc(-c3nccn3C)nc(Nc3ccn(C(C)C)n3)c12 [Compound 72, N,6-bis(1-Isopropyl-1H-pyrazol-3-yl)-5-methyl-2-(1-methyl-1H-imidazol-2-yl)pyrrolo[2,1-f][1,2,4]triazin-4-amine]
inhibition at 20 µM (cdc42): 50 to 75%
% inh of MAPK p38 in Panc-1 (MAPK p38 phosphorylation): H* (H* ≥ 100% activation)
% inh of JNK in Panc-1 (JNK phosphorylation): H* (H* ≥ 100% activation)

Further lines, with some results ahead:

inhibition at 20 µM (cdc42): 1 to 25%
Compound: Cc1c(-c2ccn(C(C)C)n2)cn2nc(-c3nccn3C)nc(Nc3cnccn3)c12 [Compound 62, 6-(1-Isopropyl-1H-pyrazol-3-yl)-5-methyl-2-(1-methyl-1H-imidazol-2-yl)-N-(pyrazin-2-yl)pyrrolo[2,1-f][1,2,4]triazin-4-amine]
% inh of MAPK p38 in Panc-1 (MAPK p38 phosphorylation): H* (H* ≥ 100% activation)
% inh of JNK in Panc-1 (JNK phosphorylation): H* (H* ≥ 100% activation)

inhibition at 20 µM (cdc42): 76 to 100%
Compound: COc1cc(Nc2nc(-c3nccn3C)nn3cc(-c4ccn(C)n4)c(C)c23)ncn1 [Compound 63, N-(6-Methoxypyrimidin-4-yl)-5-methyl-2-(1-methyl-1H-imidazol-2-yl)-6-(1-methyl-1H-pyrazol-3-yl)pyrrolo[2,1-f][1,2,4]triazin-4-amine]
% inh of MAPK p38 in Panc-1 (MAPK p38 phosphorylation): H* (H* ≥ 100% activation)
% inh of JNK in Panc-1 (JNK phosphorylation): H* (H* ≥ 100% activation)

inhibition at 20 µM (cdc42): 76 to 100%
Compound: CCn1ccc(-c2cn3nc(-c4nccn4C)nc(Nc4cc(OC)ncn4)c3c2C)n1 [Compound 64, 6-(1-Ethyl-1H-pyrazol-3-yl)-N-(6-methoxypyrimidin-4-yl)-5-methyl-2-(1-methyl-1H-imidazol-2-yl)pyrrolo[2,1-f][1,2,4]triazin-4-amine]
% inh of MAPK p38 in Panc-1 (MAPK p38 phosphorylation): H* (H* ≥ 100% activation)
% inh of JNK in Panc-1 (JNK phosphorylation): H* (H* ≥ 100% activation)

inhibition at 20 µM (cdc42): 26 to 49%
Compound: COc1cc(Nc2nc(-c3nccn3C)nn3cc(-c4cccc(OC)n4)c(C)c23)ncn1 [Compound 65, 6-(6-Methoxypyridin-2-yl)-N-(6-methoxypyrimidin-4-yl)-5-methyl-2-(1-methyl-1H-imidazol-2-yl)pyrrolo[2,1-f][1,2,4]triazin-4-amine]
% inh of MAPK p38 in Panc-1 (MAPK p38 phosphorylation): H* (H* ≥ 100% activation)
% inh of JNK in Panc-1 (JNK phosphorylation): H* (H* ≥ 100% activation)

inhibition at 20 µM (cdc42): 76 to 100%
Compound: COc1ccc(-c2cn3nc(-c4nccn4C)nc(Nc4cc(OC)ncn4)c3c2C)cn1 [Compound 66, 6-(6-Methoxypyridin-3-yl)-N-(6-methoxypyrimidin-4-yl)-5-methyl-2-(1-methyl-1H-imidazol-2-yl)pyrrolo[2,1-f][1,2,4]triazin-4-amine]
% inh of MAPK p38 in Panc-1 (MAPK p38 phosphorylation): H* (H* ≥ 100% activation)
% inh of JNK in Panc-1 (JNK phosphorylation): H* (H* ≥ 100% activation)

inhibition at 20 µM (cdc42): 1 to 25%
Compound: COc1ccc(Nc2nc(-c3nccn3C)nn3cc(-c4ccn(C(C)C)n4)c(C)c23)cn1 [Compound 71, 6-(1-Isopropyl-1H-pyrazol-3-yl)-N-(6-methoxypyridin-3-yl)-5-methyl-2-(1-methyl-1H-imidazol-2-yl)pyrrolo[2,1-f][1,2,4]triazin-4-amine]
% inh of MAPK p38 in Panc-1 (MAPK p38 phosphorylation): H* (H* ≥ 100% activation)
% inh of JNK in Panc-1 (JNK phosphorylation): H* (H* ≥ 100% activation)
